Experimental findings from publication PMC12371487, “Phenylalkyl Acetophenones and Anacardic Acids from Knema oblongifolia with Synthetic Analogues as Anti-infectives and Antibacterial Agents” (ACS Bio & Med Chem Au, 2025) are described below.

What all share (format): cell-based
For experiment [1], the system named is Staphylococcus aureus (Sa) Newman strain. In words: MIC determination in Mueller-Hinton broth (CLSI) on Sa. To be noted: for MIC: Staphylococcus aureus, NEWMAN, read-out: MIC on Sa. On the procedure: MICs were determined in Mueller–Hinton (MH) broth according to CLSI guidelines and were repeated at least on three different occasions.
The Newman strain ofS. aureus and the UCBPP-PA14 strain ofP. aeruginosa were used in this study.

Experiment [2] concerns Dictyostelium discoideum (Dd) in infection. In words: Dd-Mm infection assay: host amoeba growth (fluorescence). To be noted: infected Dd, fluorescence AUC over 72 h at 25 °C, 6-concentration curve, top 100 μM, 1:3 steps, IC50 interpolated. The procedure: (§1) Plant extracts, fractions, or isolated compounds were stored at −20 °C and wrapped in aluminum foil if necessary. All manipulations with extracts, fractions, or compounds were performed under a sterile hood. Extracts, fractions, and compounds were resuspended throughout in DMSO to best solubilize extracts with diverse constituents. Extracts, fractions, or compounds were added to the assay plate in a 1:100 dilution. Assay solutions of extracts, fractions, and compounds were prepared in 96-well plates, stored at −20 °C, and thawed before the experiment at room temperature or warmer with or without shaking/vortexing to obtain a clear assay solution. Extracts were tested at 25 μg/mL and purified compounds in a dose–response curve of 6 concentrations with 100 μM being the top concentration and a 1:3 dilution step between each testing concentration. Since fractions were not weighed individually, the injection mass was used to calculate an average mass per fraction and thus a nominal mass concentration. Fractions were tested at a nominal concentration of 10 μg/mL.
(§2) As described in Nitschke et al. and Mottet et al., Dd Ax2(ka) expressing mCherry from the act5 chromosomal locus was infected with Mm M strain expressing the lux operon (luxCDABE) , by spinoculation.
(§3) Briefly, the day before the experiment, Mm was cultivated in 7H9 broth (Becton Dickinson, Difco Middlebrook 7H9) supplemented with 10% OADC (Becton Dickinson) and 0.05% tyloxapol (Sigma-Aldrich) and 50 μg/mL kanamycin at 32 °C overnight with continuous shaking. Additionally, the day before the experiment, 10^7 amoebae were plated in HL5-C in a 10 cm Petri dish (Falcon). On the day of the experiment, a volume of the Mm culture corresponding to a multiplicity of infection of 25 with respect to the number of amoebae in the Petri dish was added to the semiconfluent amoebae monolayer. Subsequently, the Petri dishes were centrifuged twice at 500g, as described in Mottet et al. To remove extracellular bacteria, dishes were rinsed with fresh HL5-C, and the infected cell population was resuspended in HL5-C with 5 U/mL penicillin and 5 μg/mL streptomycin (Gibco) to inhibit the extracellular growth of bacteria during the course of the experiment.
(§4) For testing fractions and purified compounds, 20 μL of infected cell suspension was plated into each well of a 384-well plate (Interchim FP-BA8240) to an effective cell number of 1 × 10^4 cells per well. Fractions or compounds including a vehicle control (0.3% DMSO final concentration) and a positive control (rifabutin, 10 μM final concentration) were added using an electronic multipipette (Sartorius). Subsequently, the well plates were sealed with a gas impermeable membrane (H769.1, Carl Roth), briefly centrifuged, and intracellular bacterial growth was monitored using an Agilent BioTek H1 plate reader and an Agilent BioTek BioStack plate stacker by recording luminescence over 72 h at 25 °C with readings taken every hour. Fluorescence was also recorded to monitor amoeba growth.
(§5) For both assays, growth curves were obtained by measuring the luminescence and fluorescence as a proxy for bacterial growth and host growth, respectively, for 72 h with time-points taken every hour. The “normalized residual growth” was computed by calculating the area under the curve (AUC, trapezoid method) and normalizing it to the vehicle control (0.3% DMSO, set at 1) and a baseline curve (set at 0). The baseline curve was calculated by taking the median of the first measurement of all wells in a plate and extrapolating it over the complete time course. The threshold for hit detection was arbitrarily fixed at a cutoff of normalized residual growth ≤0.5. Normalized values were averaged over technical and biological replicates (all experiments on isolated compounds have at least n = 3 and N = 3, whereas the primary extract screening and microfractions testing had values of n = 1 and N = 3). […]

The subject of experiment [3] is Mycobacterium marinum (Mm) in infection of Dictyostelium discoideum. In words: Dd-Mm infection assay: intracellular Mm growth (luminescence). To be noted: Mm inside Dd, luminescence AUC over 72 h at 25 °C; 6-concentration curve, top 100 μM, 1:3 steps; IC50 interpolated. The procedure: as §1, §2, §3, §4, §5
For experiment [4], the system named is Mycobacterium marinum (Mm) in broth. In words: Mm growth in broth (antibiotic assay, luminescence). To be noted: 72 h; for pIC50: read-out: IC50 on Mm in broth. On the procedure: as §1, with “Extracts, fractions, and compounds were resuspended throughout in DMSO to best solubilize extracts with diverse constituents.” left out
For testing bacteria in broth, the preculture was diluted to a bacterial density of 3.75 × 10^5 bacteria per mL in 7H9 medium. Plating bacteria and compounds or fractions was performed analogously to the infection assay described above. Bacteria growth was monitored with the Agilent BioTek H1 plate reader by recording luminescence at 32 °C.
For both assays, growth curves were obtained by measuring the luminescence and fluorescence as a proxy for bacterial growth and host growth, respectively, for 72 h with time-points taken every hour. The “normalized residual growth” was computed by calculating the area under the curve (AUC, trapezoid method) and normalizing it to the vehicle control (0.3% DMSO, set at 1) and a baseline curve (set at 0). The baseline curve was calculated by taking the median of the first measurement of all wells in a plate and extrapolating it over the complete time course. The threshold for hit detection was arbitrarily fixed at a cutoff of normalized residual growth ≤0.5.
This procedure was also applied to screening extracts with slight modifications. The day before the experiment we preplated 10 μL of HL5-C using a dispenser (Thermo Multidrop), subsequently we preplated 2.2 μL of dissolved extracts from 96-well plates into quadrants 1, 2, and 3 of 384-well plates, whereas quadrant 4 was used for positive and vehicle controls. Preplating of extracts was performed using a liquid handler (Agilent Bravo). In total, 24 extract plates were distributed in triplicate into […] 384-well plates, amounting to 24 assay plates. The prepared plates were sealed and stored at 4 °C overnight. On the day of the experiment, nine 10 cm Petri dishes were infected (as described before) and grouped into three pools. The cell suspension was adjusted to 10^6 cells/mL, and 10 μL was plated into the 24 assay plates, resulting in 10^4 cells per well, as used for conventional infection experiments. Plates were sealed and placed in the plate stacker that supplied the plate reader. The same procedure was used to screen the same extracts on Mm in a broth. For both assays, the first time points and a time point after 72 h were recorded. Subsequently, we normalized the end point, first with the median of the full assay plate at the first time point and second with the end point of the vehicle controls in the respective assay plate.
For IC50 estimation, we used a rudimentary approach of interpolating the sample concentration between the two normalized residual growth values, which were closest to a value of 0.5.

Where [5] appears, read: Mm in 7H9 broth, luminescence at 32 °C, IC50 interpolated.

pIC50: −log10 of the molar value. ≈ marks a conversion by molar mass, not a printed value. Where “and” joins values, the source holds several entries; their conditions need not be identical. Equal entries are not always repeated. Where two headings read alike, the source gives them in different places.

A word on the pIC50: it is the negative decadic logarithm of the IC50, by convention in mol/L. For 2,4-Dihydroxychalcone [Compound 14], the “MIC on Sa” value in experiment [1] (Mueller-Hinton broth, CLSI) is 32 mg·L–1. Also, the pIC50 in experiment [2] was 5.13; in experiment [3], 5.61; in experiment [4] (setting [5]), 4.18.

Take “3,5-Dichloro-2,4-dihydroxychalcone [Compound 23]”: in experiment [1] (Mueller-Hinton broth, CLSI), the “MIC on Sa” value was 4 μg·mL^–1 and 4 mg·L–1. The figures for the pIC50 in experiment [2], in experiment [3] and in experiment [4] (setting [5]) were 5.75, 5.75 and 4.32, respectively.

For “3-Bromo-2,4-dihydroxychalcone [Compound 24]”, in experiment [1] (Mueller-Hinton broth, CLSI), the “MIC on Sa” value came to 64 mg·L–1. Also, the pIC50 in experiment [2] and in experiment [3] was 5.61 in each case. Besides, in experiment [4] (setting [5]), the “IC50 on Mm in broth” value is “not active”.

As for “3-Chloro-2,4-dihydroxychalcone [Compound 21]”, in experiment [1] (Mueller-Hinton broth, CLSI), the “MIC on Sa” value is listed as 32–64 mg·L–1. For the same compound, the pIC50 in experiment [2] is 6.23; in experiment [3] it was 5.75; in experiment [4] (setting [5]), 4.32.

With “5-Bromo-2,4-dihydroxychalcone [Compound 25]”, the “MIC on Sa” value in experiment [1] (Mueller-Hinton broth, CLSI) was “not active”. For the same compound, the values for the pIC50 in experiment [2], in experiment [3] and in experiment [4] (setting [5]) were 6.09, 6.09 and 4.18, respectively.

As for “5-Chloro-2,4-dihydroxychalcone [Compound 22]”, the “MIC on Sa” value in experiment [1] (Mueller-Hinton broth, CLSI) was 32 μg·mL^–1 and 32 mg·L–1. Moreover, the values for the pIC50 in experiment [2], in experiment [3] and in experiment [4] (setting [5]) were 5.75, 5.75 and 4.32, respectively.

Consider `CC(=O)c1c(O)cc(O)cc1CCCCc1ccc2c(c1)OCO2` [Compound 1, Knemolone A], for which, in experiment [1] (Mueller-Hinton broth, CLSI), the “MIC on Sa” value was “Not active”. Also, the pIC50 in experiment [2] (Dictyostelium discoideum) and in experiment [3] was 4.65 in each case. The “IC50 on Mm in broth” value in experiment [4] (setting [5]) was “Not active”.

For orientation: MIC means the smallest concentration in the dilution series that meets the test's criterion for growth inhibition. As for `CC(=O)c1c(O)cc(O)cc1CCCCc1ccccc1` [Compound 2, Knemolone B], in experiment [1] (Mueller-Hinton broth, CLSI), the MIC came out at 32 µg/mL (≈ 113 µM). Also, the pIC50 in experiment [2] (Dictyostelium discoideum) and in experiment [3] was 4.65 throughout. Further, in experiment [4] (setting [5]), the “IC50 on Mm in broth” value is recorded as “Not active”.

For the compound `O=C(O)c1c(O)cccc1CCCCc1ccc2c(c1)OCO2` [Compound 3, Knemolic acid A], the MIC in experiment [1] (Mueller-Hinton broth, CLSI) came out at 8 µg/mL (≈ 25.5 µM). Also, the pIC50 in experiment [2] (Dictyostelium discoideum) and in experiment [3] was 4.18 each time. Moreover, the “IC50 on Mm in broth” value in experiment [4] (setting [5]) is “Not active”.

As to `CC(=O)c1c(O)cc(O)cc1CCCCCCc1ccccc1` [Compound 4, Knemolone C], in experiment [1] (Mueller-Hinton broth, CLSI), the “MIC on Sa” value is listed as 4 μg·mL^–1 and the MIC is 4 µg/mL (≈ 12.8 µM). Further, in experiment [2] (Dictyostelium discoideum), the pIC50 is 4.65. In addition, the pIC50 in experiment [3] is 4.65. The “IC50 on Mm in broth” value in experiment [4] (setting [5]) is on record as “not active”.

In the case of `CCCCCCCCCc1cc(O)cc(O)c1C(C)=O` [Compound 5, Knemolone D], the MIC in experiment [1] (Mueller-Hinton broth, CLSI) was found to be 2 µg/mL (≈ 7.18 µM). Also, the pIC50 in experiment [2] (Dictyostelium discoideum) was 4.65. Moreover, in experiment [3], the “IC50 on Mm in infection” value is listed as “Not active”. Besides, the “IC50 on Mm in broth” value in experiment [4] (setting [5]) is on record as “Not active”.

With `O=C(O)c1c(O)cccc1CCCCCCc1ccc2c(c1)OCO2` [Compound 6, Knemolic acid B], the MIC in experiment [1] (Mueller-Hinton broth, CLSI) worked out at 8 µg/mL (≈ 23.4 µM). The pIC50 in experiment [2] (Dictyostelium discoideum) and in experiment [3] was 5.13 in each case. Moreover, in experiment [4] (setting [5]), the “IC50 on Mm in broth” value was “Not active”.

Regarding `O=C(O)c1c(O)cccc1CCCCCCc1ccccc1` [Compound 7, Knemolic acid C], in experiment [1] (Mueller-Hinton broth, CLSI), the MIC turned out to be 8 µg/mL (≈ 26.8 µM). For the same compound, the pIC50 in experiment [2] (Dictyostelium discoideum) and in experiment [3] was 5.13 each time. Moreover, in experiment [4] (setting [5]), the “IC50 on Mm in broth” value is “not active”.

In the case of `CCCCCCCCCc1cccc(O)c1C(=O)O` [Compound 8, Khookerianic acid A], the minimal inhibitory concentration (MIC) in experiment [1] (Mueller-Hinton broth, CLSI) was found to be 8 µg/mL (≈ 30.3 µM). Further, the pIC50 in experiment [2] (Dictyostelium discoideum) and in experiment [3] was 5.61 each time. In addition, the “IC50 on Mm in broth” value in experiment [4] (setting [5]) was “not active”.

As to `O=C(O)c1c(O)cccc1CCCCCCCCc1ccc2c(c1)OCO2` [Compound 9, Kneglobularic acid B], the MIC in experiment [1] (Mueller-Hinton broth, CLSI) was 8 µg/mL (≈ 21.6 µM). The results for the pIC50 in experiment [2] (Dictyostelium discoideum) and in experiment [3] were 4.65 and 5.13, respectively. For the same compound, the “IC50 on Mm in broth” value in experiment [4] (setting [5]) is on record as “Not active”.

With `CO[C@H]1/C=C/O[C@@]2(C)Oc3c(C)c(O)c4c(c3C2=O)C2=NC3(CCN(CC(C)C)CC3)NC2=C(NC(=O)/C(C)=C\C=C\[C@H](C)[C@H](O)[C@@H](C)[C@@H](O)[C@@H](C)[C@H](OC(C)=O)[C@@H]1C)C4=O` [rifabutin, reference compound], the “IC50 on Dd in infection” value in experiment [2] is on record as “not active”. Further, the pIC50 in experiment [3] is 6.70; in experiment [4] (Mycobacterium marinum), 7.52.

For the compound `CN[C@H](CC(C)C)C(=O)N[C@H]1C(=O)N[C@@H](CC(N)=O)C(=O)N[C@H]2C(=O)N[C@H]3C(=O)N[C@H](C(=O)N[C@H](C(=O)O)c4cc(O)cc(O)c4-c4cc3ccc4O)[C@H](O)c3ccc(c(Cl)c3)Oc3cc2cc(c3O[C@@H]2O[C@H](CO)[C@@H](O)[C@H](O)[C@H]2O[C@H]2C[C@](C)(N)[C@H](O)[C@H](C)O2)Oc2ccc(cc2Cl)[C@H]1O` [vancomycin, reference compound], the MIC in experiment [1] turned out to be 1 µg/mL (≈ 0.69 µM).
